Measured values: patent US20190125701A1 (priority 2016, published 2019)
Entries after “also recorded” stand apart in the source; their conditions may differ.

What was measured:
mCMV [1] = experiment: Plaque size assay; settings: varying drug concentrations, measured 5 dpi
mCMV [2] = assay type: in vivo, mouse; settings: for parameters of somatic development: body and tail length, eyelid opening, fur maturation; for CMV load in liver and lungs: treated PND 1 to 10, plaque assay at PND 12
mCMV [3] = experiment: Vertical pole test; assay type: in vivo, mouse; settings: P28-P30; 3 out of 20 infected untreated failed
Description: Briefly, mice were individually placed head-downward at the top of a vertical rough-surfaced pole (diameter, 8 mm; height, 55 cm) and allowed to descend in a round of habituation. Then, mice were placed head-upward at the top of the pole. The time required for the animal to descend to the floor was recorded as the locomotor activity time (TLA), with a maximum duration of 120 seconds. If a mouse fell, was unable to turn downward or was unable to climb down, a default locomotor activity time value was recorded as 120 seconds. Each mouse was given three trials with a 30 second-recovery period between trials.

mCMV [4] = experiment: Challenging beam traversal test; assay type: in vivo, mouse; settings: P28-P30
mCMV [5] = experiment: Three-chamber test of sociability and social novelty; assay type: in vivo, mouse; settings: 5 weeks of age
Description: Sociability and preference for social novelty were investigated at 5 weeks of age in a three-compartment apparatus (Yang, et al., 2011, Curr. Protoc. Neurosci. Chapter 8:Unit 8.26). Initially, test and control animals were allowed to explore the apparatus freely for a 10-min period (habituation). For the social approach paradigm, an unfamiliar conspecific (same sex, similar age and weight) animal was placed into one of the side compartments and restrained by a small wire object (‘social cage’). The compartment on the other side contained an empty wire object (‘empty cage’). The test subject was then released into the center compartment and allowed to explore the three-compartment apparatus freely for 10 min. Behavior was videotaped and assessed for the time(s) that the test subject spent in the three compartments and in close proximity to the social and empty cages. For the social-novelty paradigm, another unfamiliar conspecific animal was placed in the previously empty wire object (‘novel cage’). The behavior of the test mouse was recorded for 10 min and assessed for the time spent exploring the known and novel conspecifics.

mCMV [6] = experiment: Exploratory activity in adapted small open field; assay type: in vivo, mouse; settings: P30-40, 3-min session
hCMV [7] = experiment: hCMV virus yield reduction assay in human fetal astrocytes; assay type: cell-based, human CMV
Description: In the virus yield reduction assay, after viral adsorption, cells were washed twice with PBS and replenished with fresh medium containing the compounds to be tested. At 72 hpi medium was collected and titered by plaque assay using HDF monolayers to assess the drug-mediated inhibition of virus replication in human fetal brain astrocytes.

mCMV [8] = settings: for antiviral activity after drug removal: 24 hrs pre-treatment, compounds removed before virus inoculation; for effect on mCMV infection: cells pre-treated with drug prior to mCMV inoculation; for CMV inhibition with delayed drug addition: compounds added 2 to 12 hours after virus inoculation; for number of infected cells: drug at low concentration (100 μM) present 0-48 hpi, NIH/3T3, MOI 0.1
mCMV [9] = settings: P2 to P14
[10] = test system: Vesicular Stomatitis Virus; settings: Ornaghi, et al., 2016; cited from earlier work
[11] = cited from earlier work
mCMV [12] = experiment: Hindlimb clasping test; settings: P28-P30
mCMV [13] = experiment: Virucidal activity assay on free virions; settings: 100 μM with undiluted mCMV for 2 hours at 4° C. or 37° C., then diluted to 10 nM
hCMV [14] = experiment: hCMV infectivity assay in human fetal astrocytes; settings: 100 μM, 1 h pre-treatment, MOI 0.1, 48 hpi
mCMV [15] = experiment: Viral yield reduction assay after short drug exposure; settings: 100 μM for 2 hrs at viral challenge, supernatants at 72 hpi
mCMV [16] = experiment: Viral binding and fusion experiments (4° C./37° C. shift); settings: 100 μM, NIH/3T3, MOI 0.1, infectivity at 48 hpi
hCMV [17] = experiment: hCMV attachment and internalization in human fetal astrocytes by qPCR; settings: 100 μM
hCMV [18] = experiment: Quantification of hCMV-GFP infection in normal human dermal fibroblasts and U-373 glioblastoma cells; settings: pre-treatment prior to hCMV-GFP inoculation
[19] = test system: Vesicular Stomatitis Virus; assay type: cell-based, VSV
Sindbis virus (SIN) = assay type: cell-based
CMV IE1/2 promoter = settings: NIH/3T3, VPD 1 mM for 24 hours, plasmid transfection
Description: To investigate the effects on the immediate early phase of viral replication, NIH/3T3 cells exposed to VPD (1 mM) for 24 hours, were transfected with a CMV promoter (IE1/IE2)-driven reporter plasmid (pCMV-tdTomato) expressing the red fluorescent protein tdTomato.

mCMV [20] = experiment: Ethidium homodimer (EthD-1) cytotoxicity assay of mCMV-infected NIH/3T3 cells; settings: NIH/3T3, 24 hrs pre-treatment, MOI 0.4, 72 hpi

Compound: CCC(C)C(C(N)=O)C(C)C (stereo not shown) [SID, 2-isopropyl-3-methylpentanamide]
- CMV plaque size (mCMV [1]): reduced

Compound: CCCC(C(N)=O)C(C)CC (stereo not shown) [SPD, 3-methyl-2-propylpentanamide]
- CMV plaque size (mCMV [1]): slightly more effective than either valpromide or valnoctamide; also recorded: reduced

Compound: CCC(C)C(CC)C(N)=O (stereo not shown) [VCD, 2-ethyl-3-methylpentanamide]
- parameters of somatic development (mCMV [2]): markedly improved
- CMV load in liver and lungs (mCMV [2]): markedly decreased
- mice failing the vertical pole test (mCMV [3]): no VCD-treated mice or uninfected controls failed
- beam traversal time and number of slips (mCMV [4]): significantly improved the coordination and balance
- preference for social novelty (mCMV [5]): restored social novelty responses
- rearing and nose-poking events (mCMV [6]): Normal levels of exploratory activity were restored
- reduction in viral titer (hCMV [7]; 100 μM VCD versus vehicle): approximately 100 fold
- viral titer (hCMV [7]; 100 μM VCD, MOI 0.1, vehicle 4.92×10^5±5.84×10^4): 6.31×10^3±3.06×10^3 PFU/ml
- antiviral activity after drug removal (mCMV [8]): loss of antiviral activity
- effect on mCMV infection (mCMV [8]): inhibited
- CMV inhibition with delayed drug addition (mCMV [8]): no inhibition
- number of infected cells (mCMV [8]): 50%
- acquisition of neurological milestones in infected pups (mCMV [9]): timely acquisition of neurological milestones
- antiviral effect on vesicular stomatitis virus [10]: no antiviral effect
- conversion to corresponding free acid (valnoctic acid) ([11]; in vivo): little conversion
- CMV plaque size (mCMV [1]): reduced
- hindlimb clasping response (mCMV [12]): completely reversed this altered behavior
- virucidal activity on virions (mCMV [13]): No direct inactivation of virions
- hCMV infectivity (GFP-positive cells) (hCMV [14]): substantially decreased hCMV infectivity
- virus production (mCMV [15]): significantly decreases virus production
- CMV binding to cells (mCMV [16]): inhibit CMV binding to cells
- decrease of virus bound to the cell surface versus control (hCMV [17]; 4° C.): 60%
- CMV fusion/internalization (hCMV [17]; 37° C.): did not appear to block CMV fusion/internalization
- effect on human CMV infection (hCMV [18]): inhibited

Compound: CCCC(CCC)C(N)=O [VPD, 2-propylpentanamide]
- VSV infection compared to control [19]: 101%±5%
- SIN infection compared to control (Sindbis virus (SIN)): 107%±3%
- parameters of somatic development (mCMV [2]): markedly improved
- CMV load in liver and lungs (mCMV [2]): markedly decreased
- antiviral activity after drug removal (mCMV [8]): loss of antiviral activity
- effect on mCMV infection (mCMV [8]): robust dose-dependent inhibitory effect
- CMV inhibition with delayed drug addition (mCMV [8]): no inhibition
- number of infected cells (mCMV [8]): 50%
- fraction metabolized to VPA ([11]; humans): > 80%
- CMV plaque size (mCMV [1]): reduced
- virucidal activity on virions (mCMV [13]): No direct inactivation of virions
- virus production (mCMV [15]): significantly decreases virus production
- CMV binding to cells (mCMV [16]): inhibit CMV binding to cells
- number of red (tdTomato) cells compared to control (CMV IE1/2 promoter): 96%±4%
- viral-mediated cell death / cell survival (mCMV [20]): increased cell survival
- effect on human CMV infection (hCMV [18]): inhibited human CMV infection

Compound: ivermectin
- CMV infection compared to control (mCMV [8]; ivermectin used at 1 μM, CMV type not stated): 99%±9%
